Data set [1] relates to acute CYP-induced IC model. Also noted: method as in Dornelles et al., 2014. Conditions: acute CYP-induced IC rat model with inflammatory bladder infiltrate; ref Dornelles et al., 2014; cited from earlier work.
Data set [2] has as its system TRPV1. As to the kind of experiment: TRPV1 mRNA expression in F11 cells (RT PCR). It is filed as cell-based. Conditions: CYP 100 nM alone. An excerpt: (§1) For these experiments, cells at 18th passage were used.
(§2) Triplicate samples were run for each gene.

The next data set relates to TRPV4. Conditions: F11 cells, CYP 100 nM alone.
A further data set deals with CXCR1. Briefly: CXCR1 mRNA expression in F11 cells (RT PCR). It is filed as cell-based. Conditions: CYP 100 nM alone.
Source text: as §1, §2

The subject of data set [3] is TRPV1. As to the kind of experiment: TRPV1 protein level in F11 cells (Western blotting). In kind it is cell-based. Conditions: CYP 100 nM alone.
Source text: as §1, §2
Control and treated F11 cells were collected and lysed in an ice-cold RIPA buffer containing protease and phosphatase inhibitor cocktail (Sigma-Aldrich, United States). The extracted proteins were quantified using BCA assay (Thermo, United States). NuPAGE lithium dodecyl sulfate sample buffer (Cat#NP007, Thermo, United States) and NuPAGE sample reducing agent (Cat#NP0004, Thermo, United States) were added to the samples and then put in the Thermoblock (Eppendorf, United Kingdom) at 75°C for 10 min. Protein lysates (30 μg) were separated on NuPAGE bis–tris glycine gradient precast gel (Cat#NP0321PK2, Invitrogen, United States) and electroblotted on a PVDF membrane (Cat#IPVH00010, Millipore, United States) using a semi-dry system (Thermo, United States). Non-specific binding sites were blocked by blocking solution (Cat#000105, Invitrogen, United States) for 15 min at RT. […] The relative densities of the immunoreactive bands were determined and normalized with respect to actin, using Fiji software. […]

The subject of the next data set is CXCR2. Briefly: CXCR2 mRNA expression in F11 cells (RT PCR). In kind it is cell-based. Conditions: CYP 100 nM alone.
Source text: as §1, §2

A further data set has as its system CXCL1. As to the kind of experiment: CXCL1 mRNA expression in F11 cells (RT PCR). Conditions: CYP 100 nM alone. It is filed as cell-based.
Source text: as §1, §2

A further data set deals with F11 cells. Briefly: F11 cell viability (CellTiter AQueous One). It is filed as cell-based. Conditions: differentiated F11 cells, 24 h, 5 to 200 nM. As for the experimental part:
as §1
[…] Cell viability was determined using the colorimetric method CellTiter AQueous One Solution Cell Proliferation Assay (Promega Corporation, United States), as previously reported ([Brandolini et al., 2017]). The quantity of formed formazan, as a function of viability, was measured at 492 nm using an ELISA plate reader, Infinite F200 (Tecan, Männedorf, Swiss). The results from five independent experiments were expressed as absorbance at 492 nm.

For the next data set, the system named is urinary bladder. In kind it is in vivo. Conditions: chronic CYP 75 mg kg^−1 i.p. three times every third day. As for the experimental part:
CYP was administered to the animals by the intraperitoneal (i.p.) route (5 ml kg^−1) at the dosage of 75 mg kg^−1 for three times every third day to elicit chronic bladder irritation, as previously described ([Vizzard et al., 1996]).
Animals pre-treated with the vehicle or a single high oral dose of DF2755A (20 mg kg^−1; 12 h before the first CYP administration) followed by repeated lower doses administration (7 mg kg^−1 twice daily for 7 days) during IC development were deeply anesthetized with isoflurane (4%) and then killed.
After killing, rat abdomen was opened through a midline incision, and bladder and proximal urethra were exposed. A catheter was inserted into the bladder through the urethra and a loose ligature was placed around the neck of the urinary bladder. Bladder was inflated with saline via the catheter to slightly distend the bladder and ligature was tightened to maintain proper distension. Bladder was then excised cutting above the insertion point of ureters, and therefore the bladder neck was not included into the bladder sample. Bladders were opened using scissors and, after gross macroscopic evaluation and weighing, each bladder was cut into two equal pieces (named B1 and B2) and weighted again individually. One piece (B1) was placed in Eppendorf, then snap-frozen in liquid nitrogen, and stored at −80°C until quantification using ELISA assay. The second piece (B2) was placed in 10% formalin and stored at room temperature. Then the same samples were placed in 70% ethanol, then processed in paraffin blocks, and then trimmed according to the longitudinal plane to ensure the correct analysis of all the bladder sample. Sections were stained with hematoxylin and eosin (HE), and slides were then digitalized using a Pathscan® Touch scanner in the bright field mode with a ×20 objective. For the microscopic observations of bladder inflammation, the following parameters were analyzed: bladder edema in scores (n = 10/group), bladder hemorrhage in scores (n = 10/group), urothelial loss in scores (n = 10/group), and total inflammatory score, which was calculated by adding all the individual lesion scores (n = 10/group).

Procedure for TRPV4: F11 hybridoma cell line (ECACC 08062601), chosen as a model of dorsal root ganglion (DRG) neurons ([Platika et al., 1985]; [Brandolini et al., 2017]) was cultivated in DMEM (Corning, United States) supplemented with 10% heat-inactivated FBS (Sigma-Aldrich St. Louis, CO, United States), 1% penicillin/streptomycin, and 1% glutamine (Sigma-Aldrich, United States) at 37°C, in a humidified 95% air and 5% CO2 atmosphere. For these experiments, cells at 18th passage were used. Cells were differentiated with the rat nerve growth factor (rNGF; Sigma-Aldrich, United States). rNGF was dissolved in DMEM with 1% penicillin/streptomycin and 1% glutamine (FBS free) at the final concentration of 50 ng ml^−1. Medium was replaced every 3 days until complete differentiation, which occurred after 7 days.
TRPV1 and TRPV4 mRNA expression and protein levels and CXCR1, CXCR2, and CXCL1 mRNA levels were evaluated in F11 cells exposed to CYP. […] The total RNA concentration was determined in RNAase-free water using Nanodrop, while the concentration was determined using the Qubit Fluorometer 3.0 (Thermo, United States). […] Relative expression levels were calculated for each sample after normalization against the reference gene, using the 2^−ΔΔCt method for comparing relative fold expression differences.

Take `O=C(Nc1ccc([N+](=O)[O-])cc1O)Nc1ccccc1Br` [SB225002]: the “effect on nociceptive behavior” value in data set [1] is reported as “antinociceptive effect”.
Take `O=P1(N(CCCl)CCCl)NCCCO1` (stereo not drawn) [CYP, Cyclophosphamide, reference compound]: the “TRPV1 mRNA expression versus control” value with TRPV1 [2] was “significantly increased”. In the data set with TRPV4, the “TRPV4 mRNA expression versus control” value is “did not change”. Moreover, in the data set on CXCR1, the “CXCR1 mRNA expression versus control” value was “significantly increased”. In addition, the “TRPV1 protein level versus control” value with TRPV1 [3] was “increased”. Moreover, the “CXCR2 mRNA expression versus control” value in the data set with CXCR2 is “significantly increased”. Besides, the “CXCL1 mRNA expression versus control” value in the data set on CXCL1 is reported as “significantly increased”. The neuronal cell viability entry with F11 cells is “did not modulate neuronal cell viability”. In addition, in the data set on urinary bladder, the bladder hemorrhage result is listed as “no hemorrhage”; the “inflammatory infiltrate and urothelial hyperplasia in urinary bladder” value is “no inflammatory infiltrate and no urothelial hyperplasia”. In addition, in the data set on urinary bladder (score 0–4 (Table 1)), the “bladder edema, mean score” value was determined as 0.4 ± 0.16 and the “urothelial loss, mean score” value amounted to 0.1 ± 0.10.

The values are drawn from publication PMC9096165 (Frontiers in Pharmacology, 2022).
